Columns and labels:
Assay type in all cases: cell-based, Chinese hamster
PPAR target genes = test: RT-qPCR of candidate / PPAR target gene expression in ETE (Trastuzumab) clone in fed-batch culture; conditions: 10 mM Bezafibrate added after 3 days of fed-batch, RT-qPCR at day 6 (FIG. 6A)
Procedure: (§1) (A) ETE clone (Trastuzumab) non-treated (Control) or treated with 10 mM Bezafibrate PPARα ligand after […] of fed-batch culture (+Bezafibrate). Candidate gene expression were quantified at day 6 by RT-qPCR. (B) ETE cells treated with 10 mM Bezafibrate after 1-day fed-batch, and IgG titer measured after 10 days. Data are means±SE from four independent experiments. * P≤0.05 and ** P≤0.02 (t-test; 2 sided; unpaired sample, unequal variance).
(§2) Growth and IgG secretion performances in fed-batch culture were performed according to Le Fourn et al., 2013, with the following changes: IgG producing clone stably transfected for the expression of MIPs were seeded at 300′000 cells/ml in 5 mL culture medium in falcon of 50 mL. Viable cell density and IgG titer (g/L) were evaluated after 3, 6, 8, 9, 10 and 13 days.
(§3) For quantitative PCR (qPCR) analysis, total RNA was extracted from […] and reverse transcribed into cDNA using the GoScript Reverse transcription System (Promega). Transcripts accumulation was quantified by qPCR using the LightCycler© 480 SYBR Green I Master and the LightCycler 480 II instrument (Roche). Transcript levels were normalized to that of SDHA housekeeping gene.

DTE cells = test: Bezafibrate treatment of DTE CHO cells: target gene induction, production and fitness
Procedure: (§4) Antibiotic-selected DTE (Infliximab) cells were stably transfected with mouse PPARα or with an empty vector. Analyses of gene expression, IgG titer and cell viability were performed comparing DTE clone with empty vector cell and PPARα overexpressing cells (PPARα_OE). (A) Gene expression of PPARα targets, PPARα and IgG (qRT-PCR) in none-treated cells or cells treated with Bezafibrate (BEZA). Bezafibrate was added at 10 mM at day 1 of the fed-batch culture. RNA was extracted at day 6 of the fed-batch culture. Infliximab IgG specific productivity (B) and cell viability (C) are illustrated in non-selective or B5-starving media. Cells were cultured in 12 well-plate at a starting amount of 2*105 cell/ml in non-selective or B5 starving medium for 5 days, then transferred in non-selective media. IgG specific productivity (PCD) was then measured over 3 days of culture in non-selective media. Each measurement is the result of three independent cultures. Statistics: * P≤0.05 and ** P≤0.02 (t-test; 1 sided; unpaired sample, unequal variance).
as §2, §3

ETE (Trastuzumab) cells = test: Fed-batch culture of ETE (Trastuzumab) CHO cells: IgG production and cell survival
Procedure: as §1
The percentage of fluorescent cells and the fluorescence intensity of GFP positive cells were determined by flow cytometry analysis using a CyAn ADP flow cytometer (BECKMAN COULTER). Immunoglobulin concentrations in cell culture supernatants were measured by sandwich ELISA. GFP, IgG1Lc, IgG1Hc and MIP transcript accumulation was confirmed by RT-quantitative PCR assays before analyses.
as §2

exogenous PPARα = test: DTE (Infliximab) cells stably overexpressing mouse PPARα (PPARα_OE): gene expression (qRT-PCR) and IgG productivity
Procedure: as §4
as §3, with “Transcript levels were normalized to that of SDHA housekeeping gene.” left out

Structure (SMILES): CC(C)(Oc1ccc(CCNC(=O)c2ccc(Cl)cc2)cc1)C(=O)O [Bezafibrate, 2-[4-[2-(4-chlorobenzamido)ethyl]phenoxy]-2-methylpropanoic acid]
- expression of B5-target Slc22a14 (PPAR target genes): activated
- expression of Cyp4a14 (PPAR target genes): not induced
- expression of PPAR target genes HmgCs2, Acot1, DBI1, AscI1 and RXR nuclear receptor (PPAR target genes): induces PPAR target genes
- cell production and fitness (DTE cells): the cell production and fitness weren't improved
- induction of PPAR target genes (DTE cells): the same target genes are induced
- cell division, viability and recombinant protein production (DTE cells; increased bezafibrate concentration, data not shown): doesn't show any beneficial effect
- recombinant protein (IgG titer) at the end of the fed-batch (ETE (Trastuzumab) cells; ETE cells, 10 mM Bezafibrate added at day 1 of fed-batch, IgG titer after 10 days (FIG. 6B)): beneficial for recombinant protein
- cell division, viability and recombinant protein production (ETE (Trastuzumab) cells; ETE cells, increased bezafibrate concentration, data not shown): doesn't show any beneficial effect
- cell survival under starvation stress during the fed-batch process (ETE (Trastuzumab) cells; addition at day 3 of the fed-batch, data not shown): significantly improved cell survival
- IgG production (ETE (Trastuzumab) cells; addition at day 3 of the fed-batch, normal fed-batch conditions of feeding): no improvement of IgG production
- IgG productivity (exogenous PPARα; PPARα_OE DTE (Infliximab) cells with bezafibrate (FIG. 7B)): higher IgG productivity
- transcription of PPAR-target genes, RXR nuclear factor and IgG light and heavy chains (exogenous PPARα; PPARα_OE DTE (Infliximab) cells, Bezafibrate 10 mM at day 1, RNA at day 6 of fed-batch (FIG. 7A)): induced the transcription of PPAR-target genes

Source: patent US20230193341A1, “EXPRESSION SYSTEMS, RECOMBINANT CELLS AND USES THEREOF” (Selexis SA, priority 2018, published 2023)
